The target of the test is T1, LIFR (leukemia inhibitory factor receptor) (Homo sapiens, UniProt P42702).
T1 construct: with LIF
Description: cell-free AlphaScreen, inhibition of LIF/LIFR binding. (In general: Alpha assays give light when donor and acceptor beads are brought close together.)

By IC50 is commonly meant the midpoint of a concentration-inhibition curve. Low readings indicate higher potency, high ones lower potency.

T1 sequence (P42702 45-1097): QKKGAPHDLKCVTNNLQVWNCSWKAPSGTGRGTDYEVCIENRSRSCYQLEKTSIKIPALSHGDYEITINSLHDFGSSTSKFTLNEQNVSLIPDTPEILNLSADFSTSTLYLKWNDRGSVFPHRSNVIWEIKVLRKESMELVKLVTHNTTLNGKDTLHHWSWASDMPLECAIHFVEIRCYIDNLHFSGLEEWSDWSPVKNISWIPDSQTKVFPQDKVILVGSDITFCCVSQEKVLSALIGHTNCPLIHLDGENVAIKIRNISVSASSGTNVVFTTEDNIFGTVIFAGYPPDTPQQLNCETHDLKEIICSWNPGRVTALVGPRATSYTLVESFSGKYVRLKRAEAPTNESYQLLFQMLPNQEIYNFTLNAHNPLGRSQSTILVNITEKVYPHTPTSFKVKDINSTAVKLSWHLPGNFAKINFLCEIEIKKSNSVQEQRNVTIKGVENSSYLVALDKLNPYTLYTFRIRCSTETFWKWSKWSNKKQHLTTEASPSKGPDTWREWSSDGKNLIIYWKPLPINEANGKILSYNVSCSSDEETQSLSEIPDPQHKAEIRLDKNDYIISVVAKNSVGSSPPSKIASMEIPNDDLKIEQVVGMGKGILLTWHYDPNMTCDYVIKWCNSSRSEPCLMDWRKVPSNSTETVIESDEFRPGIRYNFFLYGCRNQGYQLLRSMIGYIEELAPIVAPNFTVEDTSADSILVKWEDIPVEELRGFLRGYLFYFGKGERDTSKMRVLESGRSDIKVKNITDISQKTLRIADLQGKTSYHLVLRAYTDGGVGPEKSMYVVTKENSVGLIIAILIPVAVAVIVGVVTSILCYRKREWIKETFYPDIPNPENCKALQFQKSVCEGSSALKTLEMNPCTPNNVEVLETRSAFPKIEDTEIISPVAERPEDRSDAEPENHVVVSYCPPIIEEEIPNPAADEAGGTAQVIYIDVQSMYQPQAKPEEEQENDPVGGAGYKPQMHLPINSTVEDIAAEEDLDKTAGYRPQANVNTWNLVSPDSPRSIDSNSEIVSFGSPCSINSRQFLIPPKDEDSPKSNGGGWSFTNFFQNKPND
T1 sequence (P15018 23-202 partner): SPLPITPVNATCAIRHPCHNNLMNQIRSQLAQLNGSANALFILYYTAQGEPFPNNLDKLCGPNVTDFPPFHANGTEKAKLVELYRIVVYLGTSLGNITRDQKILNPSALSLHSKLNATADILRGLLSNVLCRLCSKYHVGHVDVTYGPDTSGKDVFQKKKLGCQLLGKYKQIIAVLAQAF

Regarding `C=CC[C@]1(O)CCC2C3CCC4=CC(=O)CCC4=C3[C@@H](c3ccc(-c4ccccc4)cc3)C[C@@]21C` (stereo partly shown) [LRI-201], the IC50 was 21.9 ± 2.16 µM.

Values taken from PMC11090936, “The leukemia inhibitory factor regulates fibroblast growth factor receptor 4 transcription in gastric cancer” (Cellular Oncology, 2023).
